Data as given in article PMC6017732, “Identification and Characterizations of Novel, Selective Histone Methyltransferase SET7 Inhibitors by Scaffold Hopping- and 2D-Molecular Fingerprint-Based Similarity Search” (Molecules : A Journal of Synthetic Chemistry and Natural …, 2018).

biological target: T1, SET7 (Homo sapiens, UniProt Q8WTS6); experiment: AlphaLISA SET7 inhibition assay; assay type: biochemical; conditions: AlphaLISA assay, SAR discussion
T1 sequence (Q8WTS6 1-366): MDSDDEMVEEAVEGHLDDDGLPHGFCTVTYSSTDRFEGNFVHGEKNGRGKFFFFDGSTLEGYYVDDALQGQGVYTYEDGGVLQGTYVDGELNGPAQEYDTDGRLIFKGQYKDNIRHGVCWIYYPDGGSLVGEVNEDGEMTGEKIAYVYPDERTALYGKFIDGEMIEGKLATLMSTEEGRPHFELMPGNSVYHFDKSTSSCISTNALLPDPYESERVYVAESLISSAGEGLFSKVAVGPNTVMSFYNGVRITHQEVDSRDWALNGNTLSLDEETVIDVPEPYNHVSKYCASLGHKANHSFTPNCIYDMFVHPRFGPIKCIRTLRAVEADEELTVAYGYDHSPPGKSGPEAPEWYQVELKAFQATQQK
Procedure: AlphaLISA assays were applied to determine the inhibitory activity targeting SET7. The purified SET7 protein was incubated in modified Tris buffer in 384-well plates (Perkin Elmer, Cat. No. 6007299, Waltham, MA, USA) at room temperature for 15 min. The compounds were transferred to the assay plate using Echo in 100% DMSO, and substrate solution was added to each well to start the reaction. Acceptor and donor beads were added and incubated for 60 min at room temperature, shielded from light. The endpoint was evaluated with EndSpire in Alpha mode. The experimental data was fitted in GraphPad Prism 5 to obtain inhibition values using the equation as follows:(1) Inhibition %= Max−Siginal/Max−Min×100%

Compound | activity against SET7 (in words)
COc1cc(/C=N/NC(=O)c2ccc(-c3ccccc3)cc2)c([N+](=O)[O-])cc1OC [DC-S305] | no activity

same assay, conditions: AlphaLISA assay, SET7

Compound | IC50
COc1cc(/C=N/NC(=O)c2ccc(-c3ccccc3)cc2)ccc1OC(C)=O [DC-S306] | 20 µM
O=C(CCC(=O)N/N=C/c1cc([N+](=O)[O-])ccc1Cl)NCc1ccccc1 [DC-S314] | 46 µM
O=C(NNC(=O)c1ccc([N+](=O)[O-])cc1)c1ccc(-c2ccccc2)cc1 [DC-S334] | 9.9 µM
O=C(NN=Cc1cc2c(cc1Br)OCO2)c1ccc([N+](=O)[O-])cc1 [DC-S351] | 3.4 µM
O=C(NN=Cc1ccc(-c2ccccc2Cl)o1)c1ccc([N+](=O)[O-])cc1 [DC-S364] | 3.7 µM

same assay, conditions: AlphaLISA assay, SET7, 100 μM; read-out: Inhibition Ratio at 100 μM/%

Compound | inhibition at 100 µM
O=C(N/N=C/c1ccc(Cl)c([N+](=O)[O-])c1)c1ccc(-c2ccccc2)cc1 [DC-S304] | 44%
COc1cc(/C=N/NC(=O)c2ccc(-c3ccccc3)cc2)c([N+](=O)[O-])cc1OC [DC-S305] | -5%
COc1cc(/C=N/NC(=O)c2ccc(-c3ccccc3)cc2)ccc1OC(C)=O [DC-S306] | 94%
COc1ccc(/C=N/NC(=O)c2ccc(-c3ccccc3)cc2)cc1O [DC-S307] | 8%
COc1ccc(/C=N/NC(=O)c2ccc(-c3ccccc3)cc2)c(OC)c1Br [DC-S308] | 7%
Cc1cccc(/C=N/NC(=O)c2ccc(-c3ccccc3)cc2)c1 [DC-S309] | -5%
CCOc1ccc(/C=N/NC(=O)c2ccc(-c3ccccc3)cc2)c(OCC)c1 [DC-S310] | -6%
O=C(N/N=C/c1cccc(Cl)c1Cl)c1ccc(-c2ccccc2)cc1 [DC-S312] | -3%
O=C(N/N=C/c1c(Cl)cccc1Cl)c1ccc(-c2ccccc2)cc1 [DC-S313] | -6%
O=C(CCC(=O)N/N=C/c1cc([N+](=O)[O-])ccc1Cl)NCc1ccccc1 [DC-S314] | 77%
O=C(N/N=C/c1cc([N+](=O)[O-])ccc1Cl)C(c1ccccc1)c1ccccc1 [DC-S315] | 46%
O=C(N/N=C/c1cc([N+](=O)[O-])ccc1Cl)c1cccc(O)c1 [DC-S316] | 37%
COC(=O)N/N=C/c1cc([N+](=O)[O-])ccc1Cl [DC-S318] | 17%
Nc1ccccc1C(=O)N/N=C/c1cc([N+](=O)[O-])ccc1Cl [DC-S319] | 14%
O=C(N/N=C/c1cc([N+](=O)[O-])ccc1Cl)c1ccc(O)cc1 [DC-S320] | 11%
O=C(N/N=C/c1cc([N+](=O)[O-])ccc1Cl)c1ccc(O)cc1O [DC-S321] | 9%
O=C(NNC(=O)c1ccc([N+](=O)[O-])cc1)c1ccc(-c2ccccc2)cc1 [DC-S334] | 96%
O=C(NNC(=O)c1cccc([N+](=O)[O-])c1)c1ccc(-c2ccccc2)cc1 [DC-S335] | 12%
COc1ccc(C(=O)NNC(=O)c2ccc(-c3ccccc3)cc2)cc1 [DC-S336] | 49%
O=C(NNC(=O)c1ccc(-c2ccccc2)cc1)c1ccccc1 [DC-S337] | 1%
O=C(NNC(=O)c1cccc(Cl)c1)c1ccc(-c2ccccc2)cc1 [DC-S338] | 1%
O=C(NNC(=O)c1ccc(-c2ccccc2)cc1)c1ccc(F)cc1 [DC-S339] | -6%
O=C(CCc1ccccc1)NNC(=O)c1ccc(-c2ccccc2)cc1 [DC-S340] | -6%
O=C(NNC(=O)c1ccccc1C(=O)O)c1ccc(-c2ccccc2)cc1 [DC-S341] | -10%
O=C(NNC(=O)C(F)(F)F)c1ccc(-c2ccccc2)cc1 [DC-S342] | -13%

Compound | inhibition at 100 µM
O=C(NN=Cc1ccc(Cl)s1)c1ccc([N+](=O)[O-])cc1 [DC-S344] | 32%
O=C(NN=Cc1cccc(Cl)c1)c1ccc([N+](=O)[O-])cc1 [DC-S345] | 29%
Nc1ccc(C=NNC(=O)c2ccc([N+](=O)[O-])cc2)cc1 [DC-S346] | 21%
O=C(NN=Cc1ccc[nH]1)c1ccc([N+](=O)[O-])cc1 [DC-S347] | 10%
Cc1c(C=NNC(=O)c2ccc([N+](=O)[O-])cc2)cnn1C [DC-S348] | -11%
O=C(NN=Cc1cc2c(cc1[N+](=O)[O-])OCO2)c1ccc([N+](=O)[O-])cc1 [DC-S349] | -1%
O=C(NN=Cc1cn(Cc2ccc(Cl)cc2Cl)c2ccccc12)c1ccc([N+](=O)[O-])cc1 [DC-S350] | 6%
O=C(NN=Cc1cc2c(cc1Br)OCO2)c1ccc([N+](=O)[O-])cc1 [DC-S351] | 96%
COc1cc(OC)c(C=NNC(=O)c2ccc([N+](=O)[O-])cc2)cc1Br [DC-S352] | 39%
COc1ccc(C=NNC(=O)c2ccc([N+](=O)[O-])cc2)cc1 [DC-S353] | 35%
O=C(NN=Cc1cc([N+](=O)[O-])ccc1N1CCCCC1)c1ccc([N+](=O)[O-])cc1 [DC-S354] | 35%
O=C(NN=Cc1ccccc1OC(=O)c1ccc([N+](=O)[O-])cc1)c1ccc([N+](=O)[O-])cc1 [DC-S355] | 20%
O=C(NN=Cc1c[nH]nc1-c1ccc(Cl)cc1)c1ccc([N+](=O)[O-])cc1 [DC-S356] | 17%
COc1ccc(C=NNC(=O)c2ccc([N+](=O)[O-])cc2)c2ccccc12 [DC-S357] | 13%
O=C(NN=Cc1ccccc1OC(=O)c1ccc(Cl)cc1)c1ccc([N+](=O)[O-])cc1 [DC-S358] | 6%
O=C(NN=Cc1c(OC(=O)c2ccc(Cl)cc2)ccc2ccccc12)c1ccc([N+](=O)[O-])cc1 [DC-S359] | 5%
COc1ccc(-c2ccc(C=NNC(=O)c3ccc([N+](=O)[O-])cc3)o2)cc1Cl [DC-S360] | 4%
COc1ccc2ccccc2c1C=NNC(=O)c1ccc([N+](=O)[O-])cc1 [DC-S361] | -1%
COc1cc(C=NNC(=O)c2ccc([N+](=O)[O-])cc2)ccc1OC(C)=O [DC-S362] | -4%
O=C(NN=Cc1ccccc1OCc1cccc(Br)c1)c1ccc([N+](=O)[O-])cc1 [DC-S363] | -15%
O=C(NN=Cc1ccc(-c2ccccc2Cl)o1)c1ccc([N+](=O)[O-])cc1 [DC-S364] | 54%
COc1ccc(C(=O)NN=Cc2ccc([N+](=O)[O-])cc2)cc1OC [DC-S365] | 10%
O=C(NN=Cc1ccc([N+](=O)[O-])cc1)c1ccc(CSc2ccccc2)cc1 [DC-S366] | 9%
O=C(NN=Cc1ccc([N+](=O)[O-])cc1)c1cccc(Cl)c1 [DC-S367] | -1%

tested on: SET7; experiment: not given; conditions: SET7, previous research of the authors; cited from earlier work

Compound | IC50
COC(=O)c1c(N)sc(C(=O)Nc2cccc([N+](=O)[O-])c2)c1C [DC-S238] | 4.9 µM
CCOC(=O)c1c(N)sc(C(=O)Nc2cccc([N+](=O)[O-])c2)c1C [DC-S239] | 4.6 µM

same assay, conditions: SET7; cited from earlier work

Compound | IC50
O=C([C@@H](Cc1cccc(C(F)(F)F)c1)NS(=O)(=O)c1cc(F)c2c(c1)CCNC2)N1CCCC1 [(R)-PFI-2] | 0.002 µM

biological target: T1, SET7; experiment: 3H-labeled radioisotope methylation assay; assay type: biochemical; conditions: 3H radioactive methylation assay
Procedure: As for ^3Hradioactive methylation assay, SAH was used as the reference compound and the compounds were tested in 10 concentrations in duplicate in modified Tris buffer (1× assay buffer). The following materials were purchased: SET7 (Enzo, Cat. No. ALX-201-178, New York, NY, USA), [^3H]-SAM (PerkinElmer Inc., Lot. No. 1790854), SAH (Sigma, Cat. No. A9384-25MG, St. Louis, MO, USA) and 384-well Flashplate (Perkin Elmer, Cat. No. SMP410A001PK,). The compounds were transferred to the assay plate by Echo 550 with 3-fold dilution in 100% DMSO where the final DMSO concentration is 1%. Then the enzyme solution was transferred to the assay plate and 1× assay buffer was transferred for low control. After 15 min incubation at room temperature, peptide and [^3H]-SAM mix solution was transferred to each well to start the reaction. The cold SAM in 1× buffer was added to each well to stop the reaction after 60 min incubation at room temperature. 25 μL of the whole reaction system per well was transferred to Flashplate which was washed with dH2O and 0.1% Tween-20 for three times after 60 min incubation. The data was read on Microbeta. All the inhibition assays are performed in duplicate.

Compound | IC50
Nc1ncnc2c1ncn2[C@@H]1O[C@H](CSCC[C@H](N)C(=O)O)[C@@H](O)[C@H]1O [SAH, reference compound] | 5.4 µM
